Data: patent US8741843B2, “Compositions and methods for inducing angiogenesis” (priority 2006, dated 2014)
“Also recorded” adds a separate entry of the source. Ends that are not written are not given here.

What was measured:
[1] = target: T1, GRP78 on endothelial cells (Homo sapiens, UniProt P11021); assay: FACS competition of peptides with GRP78 polyclonal antibody on endothelial cells under hypoxia; type: binding; settings: hypoxic conditions; listed as motif C
T1 construct: endogenous in cells; host or cells: HUVEC / endothelial cells from umbilical cords, under normoxia or hypoxia
T1 sequence (P11021 19-654): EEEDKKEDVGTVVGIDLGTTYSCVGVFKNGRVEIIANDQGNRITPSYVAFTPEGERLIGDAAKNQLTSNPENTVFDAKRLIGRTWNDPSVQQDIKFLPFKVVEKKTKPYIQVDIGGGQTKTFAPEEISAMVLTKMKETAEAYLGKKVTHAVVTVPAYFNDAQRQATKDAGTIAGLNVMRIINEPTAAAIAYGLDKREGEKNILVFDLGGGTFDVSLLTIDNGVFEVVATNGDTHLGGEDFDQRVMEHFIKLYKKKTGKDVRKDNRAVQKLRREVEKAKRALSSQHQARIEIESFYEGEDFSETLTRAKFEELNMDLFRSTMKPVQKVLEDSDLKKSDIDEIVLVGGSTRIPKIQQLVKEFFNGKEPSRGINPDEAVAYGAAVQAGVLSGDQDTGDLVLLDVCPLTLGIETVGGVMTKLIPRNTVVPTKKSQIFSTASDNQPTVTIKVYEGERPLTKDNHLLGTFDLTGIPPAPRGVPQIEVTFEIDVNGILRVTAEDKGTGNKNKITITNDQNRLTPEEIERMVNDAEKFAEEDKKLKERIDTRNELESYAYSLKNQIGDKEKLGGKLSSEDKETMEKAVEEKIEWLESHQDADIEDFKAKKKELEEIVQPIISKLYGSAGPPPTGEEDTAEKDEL
Experimental: Endothelial cells were cultured for 24 hours under hypoxic conditions in endothelial cell growth medium. Cells were removed by trypsin and incubated for 1 hour on ice with increasing concentrations of AdoPep1, Motif A and Motif C peptides. GRP78 polyclonal antibody (2 μg/100,000) was added to the cells for 2 hours on ice. Anti-goat FITC (Jackson ImmunoResearch) was added for 30 minutes on ice. IgG1-FITC was used as the isotype control. The samples were analyzed with a FACScan (Beckton Dickinson). […] FIG. 28d depicts the average percent binding of GRP78 to endothelial cells as a function of peptide amount as determined by 2 independent experiments.

[2] = tested on: endothelial cells (HUVEC); assay: Migration of endothelial cells under hypoxia (Chemicon QCM 96-well Migration Assay); type: cell-based, human; settings: 5 hours hypoxia, 10 ng/ml
Experimental: FIG. 6 is a graph depicting migration of endothelial cells under hypoxia conditions. Endothelial cells (25,000) were incubated in endothelial cells growth medium free supplements in the migration chamber. ADOPep1 (SEQ ID NO:2), 2 (SEQ ID NO:3) and 3 (SEQ ID NO:4) were added to the feeder tray of the migratory kit at 1, 10 and 100 ng/ml for 5 hours hypoxia. Results were determined by a fluorescence ELISA reader and expressed as increase in percentage migration in Relative fluorescence Units.
FIGS. 26a-b are graphs depicting induction of endothelial cell migration under hypoxia by the ADOPEP motifs. Endothelial cells were incubated for 5 hours under hypoxia conditions in the presence of increasing concentrations of ADOPep1 (red line), peptide motif A (dark blue line), peptide motif B (green line) or peptide motif C (light blue line) and the migration of endothelial cells was detected. FIG. 26a—experiment 1; FIG. 26b—experiment 2.
Endothelial cell migration was evaluated by the Chemicon QCM 96-well Migration Assay (Chemicon International, Calif., USA) according to manufacturer's instructions. This kit utilizes a membrane with an 8 μm pore size. Migratory cells on the bottom of the insert membrane are dissociated from the membrane when incubated with cell detachment buffer provided by the kit. […] For the migration assay, HUVEC from passage 3 were incubated in endothelial cell (EC) growth medium free of supplements. After trypsinization, 25,000 EC were incubated in the migration chamber. ADOPeps were added at concentrations of 1, 10 and 100 ng/ml in the feeder tray for chemoattractant migration assay. Time of incubation was 5 hours for endothelial cells under hypoxic conditions. Results were determined in a Fluorescent ELISA reader at 480/520 nm.

endothelial cells [3] = assay: Inhibition of binding of biotinylated ADOPep1 to endothelial cells by motif peptides; design: species or system human; settings: normoxia, peptides 0.01, 0.1 or 1 ng/ml, ADOPep1^Biot 2 μg/ml
Experimental: FIG. 23 is a graph depicting the inhibition of binding of ADOPep1^Biot (2 μg/ml) to endothelial cells by specific peptides corresponding to conserved motifs from the ADOPeps. Endothelial cells were incubated for 2 hours under normoxia conditions in the presence of increasing concentrations (0.01, 0.1 or 1 ng/ml) of peptides having the amino acid sequences corresponding to Motif A (HWRRP; SEQ ID NO:7), Motif B (HWRRA; SEQ ID NO:8), Motif C (AHLLP; SEQ ID NO:6) or non-biotinylated ADOPep1 (SEQ ID NO:2) and then were incubated for 1 hour with biotinylated ADOPep1 (2 μg/ml) and the binding of biotinylated ADOPep1 to endothelial cells was determined using HRP-streptavidin.

endothelial cells [4] = assay: Hypoxia-induced apoptosis of endothelial cells (Annexin V FITC/PI FACS); type: cell-based, human; settings: 24 hours hypoxia; for effect on hypoxia-induced apoptosis of endothelial cells: peptides 10 ng/ml
Experimental: FIG. 17 is a histogram depicting the effect of ADOPep1 on hypoxia-induced apoptosis of endothelial cells. Endothelial cells were exposed for 24 hours hypoxia in the presence of endothelial cell growth medium supplemented with 5% fetal calf serum (FCS), followed by incubation under hypoxia conditions with ADOPep1 (10 ng/ml) or anti-GRP78 antibody (100 ng/ml). Cells (100,000/tube) were incubated with Annexin-V FITC/PI for endothelial cell apoptosis determination. […] Similarly, anti-GRP78 antibody induced a reduction in apoptosis up to 32%.
FIGS. 24a-d are FACS analyses depicting hypoxia induced apoptosis. Endothelial cells were incubated for 24 hours under hypoxia conditions in the absence (FIG. 24a) or presence of 10 ng/ml of ADOPepe1 (FIG. 24b), peptide of Motif A (FIG. 24c) or peptide of motif C (FIG. 24d) and the level of apoptosis was determined using FACS analysis and the PI (shown on the Y axis)/Annexin V (shown on the X axis) markers.
FIG. 25 is a bar graph depicting the inhibition of hypoxia induced apoptosis by ADOPep 1, Motif A and Motif B. Endothelial cells were incubated for 24 hours under hypoxia conditions in the absence or presence of 10 ng/ml of ADOPepe1, Motif A, Motif B or motif C and the level of apoptosis was determined using FACS analysis and quantified as the percent of Annexin V and PI positive cells. The results represent average±standard deviation of 4 independent experiments.
FIGS. 33a-f are representative FACS analyses depicting a specific inhibition of hypoxia-induced apoptosis of endothelial cells by ADOPep1. Endothelial cells in Petri dishes were incubated for 24 hours with 5% FCS in supplement-free endothelial cell growth medium under normoxia (FIGS. 33a and d), exposed to 24 hours hypoxia (Figures c and f) or incubated under normoxia with 100 micromolar per 100,000 cells CoCl2 (FIGS. 33b and e), in the absence (FIGS. 33a-c) or presence (FIGS. 33d-f) of 10 ng/ml Adopep1 peptide (for 24 hours). Cells were trypsinized and immediately re-suspended in PBS with 5% FCS and 0.1% Na-azide. Samples containing 100,000 cells were tested for apoptosis using the Annexin-FITC (X axis) and propidium iodide (Y axis) kit (Bender Medsystems, Vienna, Austria), according to manufacturer's instructions. Results were analyzed by FACScan (Beckton Dickinson).
EC were incubated for 24 hours with 5% FCS in EC growth media in Petri dishes plates followed by 24 hours incubation under hypoxia conditions with ADOPep1 (10 ng/ml), anti GRP78 antibody (Santa Cruz Biotechnology, Calif., USA) (1 microgram/ml) or recombinant VEGF (10 ng/ml). The Annexin V FITC/PI detects the phosphatidylserin on the apoptotic cells using flow cytometry. Human Annexin V-FITC kit (Bender Medsystems, Vienna, Austria) was used for the measurement of EC apoptosis percentage following manufacturer's instructions. Samples were analyzed using a fluorescence activated cell sorter (FACScan Beckton Dickinson, Calif., USA).

[5] = tested on: endothelial cells (HUVEC); assay: Binding of biotinylated ADOPep to endothelial cells by FACS; design: species or system human; settings: 5 micrograms per 100,000 cells
Experimental: FIG. 3 is a FACS analysis depicting the binding (in percentages) of biotinylated ADOPep1 (ADOPep1^Biot), an ADAM15 derived peptide (SEQ ID NO:2), to endothelial cells (EC) under normoxia. Biotinylated ADOPep1 at 0.05, 0.5 and 5 microgram/ml (μg/ml) were added to endothelial cells.
FIG. 4 is a FACS analysis depicting the binding (in total counts) of Biotinylated ADOPep1 to endothelial cells under normoxia and hypoxia conditions. […] X axis—Intensity of binding.
Human umbilical endothelial cells (HUVEC) were harvested by trypsin and 100,000 cells per sample were suspended in PBS+5% FCS+0.1% Na azide. Endothelial cells were either exposed for 5 hours to hypoxia or remained under normoxia conditions. Cells were stained for 2 hours on ice in dark with 0.05, 0.5, 5 μg/100,000 cells biotinylated ADOPeps. The cells were then washed twice with PBS, following which the cells were stained for 30 minutes with FITC-labeled Streptavidin (Jackson ImmunoResearch Laboratories, PA, USA). After washing, samples were analyzed using a fluorescence activated cell sorter (FACScan Beckton Dickinson, Calif., USA).

GRP78 = GRP78 (Homo sapiens, UniProt P11021); assay: Immune precipitation of endothelial cell lysate with biotinylated ADOPep1, PAGE, Western blot, mass spectrometry; type: binding; design: immune precipitation of endothelial cells lysate with biotinylated ADOPep1 under normoxia and hypoxia conditions; endogenous in cells; host or cells: HUVEC (lysate); settings: normoxia and hypoxia
GRP78, sequence (P11021 19-654): as above
Experimental: HUVEC were seeded in 90 mm Petri dishes plates for 24 hours with complete Endothelial Cell Growth Medium (PromoCell. Heildelberg, Germany). Cells were washed twice with PBS and buffer lysate (50 mM Tris Cl (pH 8, 150 mM Na Cl, 0.02% Na azide, 0.1% SDS, 100 μg/ml PMSF, 1 μg/ml protease inhibitors, 1% NP-40) was added for 20 minutes on ice. After incubation, cells were scraped with a rubber policeman and transferred to a chilled microfuge tube. After centrifugation of lysate at 12,000 g for 2 minutes at 4° C., supernatant was transferred to a fresh microfuge tube and stored at −70° C.
Aliquots samples of lysates (500 μl) were incubated with 10 μg of biotinylated ADOPep1 for one hour at 4° C. by gently mixing. Streptavidin Sepharose beads (Amersham Biosciences, Uppsla, Sweeden) (50 μl) were added to the sample for a second incubation one hour at 4° C. by gently mixing. After then, sample was centrifuge for 20 seconds at 12,000 g and the pellet was saved and further washed 3 times. Finally the pellet was suspended in 100 μl of sample buffer for Western blot analysis. For ELISA, protein was eluted by 5 minutes incubation of the sample at room temperature in 1 ml of Tris-Glycin 0.2M (pH 2.2), followed by titration with 1M Tris (pH 9.1). […]

Row | Substance | inhibition of anti GRP78 binding to endothelial cells (in words) [1] | migration of endothelial cells [2] | inhibition of the binding of ADOPep1^Biot to endothelial cells (endothelial cells [3]) | effect on hypoxia-induced apoptosis of endothelial cells (endothelial cells [4]) | effect on hypoxia-induced apoptosis of endothelial cells (endothelial cells [4]; listed as motif C) | percent apoptosis (PI/Annexin V) (endothelial cells [4]; FIGS. 24a-d, 10 ng/ml, hypoxia alone 79.3%) [%] | binding to endothelial cells under hypoxia versus normoxia [5] | protein (receptor) bound by the peptide in endothelial cell lysate (GRP78)
1 | AHLLP [Motif C, 5 amino acid motif peptide without HWRR] | did not inhibit anti GRP78 binding | no significant effect on endothelial cell migration | moderate inhibition of binding | no effect on apoptosis | no effect on hypoxia induced apoptosis | 81.1 | – | –
2 | HWRRA [Motif B, 5 amino acid motif peptide] | – | induced endothelial cell migration | significant inhibition | capable of inhibiting the hypoxia induced apoptosis; also recorded: significant inhibition of hypoxia induced apoptosis | – | – | – | –
3 | biotinylated ADOPep1: biotinylated ADOPep1 (SEQ ID NO:2) (HWRRAHLLPRLP; also: biotinylated) | – | – | – | – | – | – | increased under hypoxia | GRP78 protein
